Results published in patent publication US8629276B2, “Inhibitors of human immunodeficiency virus replication” (priority 2012, dated 2014).

Each compound was assayed on recombinant NL-Rluc virus (assay: Inhibition of HIV replication (NL-RLuc virus, luciferase readout in MT-2 cells)). Conditions: Human immunodeficiency virus 1, MT2, 120 h.
Assay type: cell-based
Cc1ccc(-c2c3c(nc(C)c2[C@H](OC(C)(C)C)C(=O)O)CCN(Cc2ccc(Cl)cc2)C3)cc1 [Example 41, (S)-2-(tert-Butoxy)-2-(6-(4-chlorobenzyl)-2-methyl-4-(p-tolyl)-5,6,7,8-tetrahydro-1,6-naphthyridin-3-yl)acetic acid] was tested, and the EC50 was 150 nM.
Cc1ccc(-c2c3c(nc(C)c2[C@H](OC(C)(C)C)C(=O)O)C(C)(C)CN(CCCc2ccccc2)C3)cc1 [Example 43, (S)-2-(tert-Butoxy)-2-(2,8,8-trimethyl-6-(3-phenylpropyl)-4-(p-tolyl)-5,6,7,8-tetrahydro-1,6-naphthyridin-3-yl)acetic acid] was tested, and the EC50 was 29 nM.
Compound Cc1ccc(-c2c3c(nc(C)c2[C@H](OC(C)(C)C)C(=O)O)CCN(CCc2c[nH]c4ccccc24)C3)cc1 [Example 46, (S)-2-(6-(2-(1H-Indol-3-yl)ethyl)-2-methyl-4-(p-tolyl)-5,6,7,8-tetrahydro-1,6-naphthyridin-3-yl)-2-(tert-butoxy)acetic acid] has an EC50 of 139 nM.
Cc1nc2c(c(-c3cc(F)c4c(c3C)CCCO4)c1[C@H](OC(C)(C)C)C(=O)O)CN(CC1CC1c1ccccc1)CC2 (stereo partly drawn) [Example 50, (2S)-2-(tert-Butoxy)-2-((R)-4-(8-fluoro-5-methylchroman-6-yl)-2-methyl-6-((2-phenylcyclopropyl)methyl)-5,6,7,8-tetrahydro-1,6-naphthyridin-3-yl)acetic acid] gave an EC50 of 5 nM.
For Cc1ccc(CCCN2CCc3nc(C)c([C@H](OC(C)(C)C)C(=O)O)c(-c4cc(F)c5c(c4C)CCCO5)c3C2)cc1 [Example 54, (2S)-2-(tert-Butoxy)-2-(4-(8-fluoro-5-methylchroman-6-yl)-2-methyl-6-(3-(p-tolyl)propyl)-5,6,7,8-tetrahydro-1,6-naphthyridin-3-yl)acetic acid], the EC50 was 2 nM.
